Data from publication PMC4279406, “Simultaneous targeting of PI3Kδ and a PI3Kδ-dependent MEK1/2-Erk1/2 pathway for therapy in pediatric B-cell acute lymphoblastic leukemia” (Oncotarget, 2014).

How the values were obtained:
[1] = test system: PI3Kδ (M-CSF-stimulated THP-1 monocytes); test: M-CSF-induced Akt phosphorylation in THP-1 cells; type: cell-based; conditions: at 10 nM; M-CSF 50 ng/ml
Description: In fibroblasts, signals from the insulin-like growth factor 1 (IGF-1) receptor are mediated by PI3Kα, while lysophosphatidic acid (LPA) stimulates G-protein coupled receptor (GPCR) signals via PI3Kβ[26]. After being pre-incubated with X-370, murine embryonic fibroblasts cultured in serum-free medium were stimulated with IGF-1 or LPA. […] Either PI3Kδ or PI3Kγ can be activated in THP-1 monocytes dependent on the stimulating ligand, among which macrophage colony stimulating factor (M-CSF/CSF-1) activates RTK-coupled PI3Kδ, while monocyte chemoattractant protein-1 (MCP-1) activates PI3Kγ [24]. Accordingly, THP-1 cells cultured in serum-free medium were stimulated with MCP-1 or M-CSF in the presence of X-370 and phosphorylated Akt was measured.
Cell lysates were probed with indicated antibodies. The IC50 values were calculated based on relative band intensity measured with ImageQuant™ TL (GE Healthcare Life Sciences, Piscataway, NJ) (B). Data shown are mean values from three independent experiments. (C, D, E, F) X-370 blocked stimuli-triggered PI3Kδ activation. MEF cells and THP-1 were starved in serum-free medium for 12 h or 4 h respectively and X-370 were added for an additional 1 h treatment following stimulation of IGF-1 at 100 ng/ml for MEF cells (C), LPA at 10 μM for MEF cells (D), MCP-1 at 100ng/ml for THP-1 (E) and M-CSF at 50 ng/ml for THP-1 (F). […]

Raji-R cells = test: Signaling by Western blot in Raji-R cells; type: cell-based, human; conditions: 1 h
Description: Raji and SU-DHL-6 cells were treated with X-370 for 1 h (left panel) or treated with 0.5 μM X-370 for indicated times (middle panel). Right panel, Raji cells were incubated in fresh medium following treatment with 0.5 μM X-370 for 1 h. Indicated proteins were detected. (B) Raji-R (the rituximab-resistant derivatives of Raji cells) cells were resistant to X-370. The activity of X-370 on the proliferation of Raji parent and Raji-R cells was determined by CCK-8 assay as described in the methods section. (C) X-370 blocked phosphorylation of Akt but not Erk1/2 in Raji-R cells. Raji-R cells were treated with X-370 for 1h and indicated proteins were detected. Data shown are representative from three independent experiments.
Simultaneous targeting of PI3Kδ and a PI3Kδ-dependent MEK1/2-Erk1/2 pathway for therapy in pediatric B-cell acute lymphoblastic […]
Cells were treated as indicated conditions and then subjected to lysate to perform standard Western blot as described previously1. Briefly, whole-cell lysates and SDS-loading buffer diluted cell fractions were analyzed on SDS-PAGE gels. […]
Raji cells were treated with or without X-370 at 1 μM, 5μM and 10 μM for 24, 48 and 72 hours, thenwere measured using the Caspase-Glo® 3/7 Assay (Promega, US) following the protocol and relative caspase-3/7 activity was normalized to cell number which DMSO control was the base line. […]

O=C(N1CCCC1)N1CCC(n2cnc3c(-n4c(C(F)F)nc5ccccc54)nc(N4CCOCC4)nc32)CC1 [X-370]
M-CSF-induced Akt phosphorylation [1]: completely blocked | Akt and S6k1 phosphorylation (Raji-R cells): significantly inhibited | level of phosphorylated Erk1/2 (Raji-R cells): negligible activity
